The text below walks through data of patent US12048320B2, “Process for preparing high density, thermostable polysaccharide beads as food additives” (DNA CATCHER, S.L, priority 2019, dated 2024).

The nature of data set [1]: End point (maximum) amount of water miscible solvent in hydrated DB. It is filed as physicochemical. The note with it: MV alginate, 1:1.25 alginate:water. As for the experimental part:
Hydrated DB beads were prepared as example 1 using MV alginate. In this case, the water was used to achieve alginate within the hydrated beads to be 44.44% (w/w), which means 125 mL water and 100 g MV alginate (1:1.25 alginate:water ratio). WMS were propylene glycols (PG), glycerol, polyethylene glycol (PEG400) and absolute ethanol. Then, different amounts of volatile and non-volatile water miscible solvents (WMS) were added slowly to the hydrated beads under high shear mixing. The end point (the optimized amount of WMS) was calculated by monitoring physical properties of hydrated beads including size and hardness as described in examples 1 & 2. […] Beads then were cross-linked, washed and dried as described in example 1.
The end point (end point ratio by weight (alginate:water:WMS)) in table 14 means the maximum amount of WMS that allows to obtain acceptable bead hardness (more than 1 kg/cm^2/g beads) and acceptable size range of both wet and dry beads according to the established criteria in table 3 and 4, example 1.

The nature of data set [2]: Limonene loss post baking of pancakes (gas chromatography). It is filed as physicochemical. The settings on record: pancakes baked at 200° C. for 15 min. How it is done: The amount of D-limonene was assayed pre and post baking. For this purpose, 10 ml of distilled water was added to 5 g pancakes. Then, 30 ml methanol was added and the mixture was centrifuged at 3000 rpm for 20 min for further assay by gas chromatography. The % of lost limonene post packing as the following equation and expressed as the % of lost limonene post packing (w/w): % of lost limonene post baking (w/w)=(Initial amount added before backing−Residual amount of limonene found in baked pancakes)[…] Results

Take `CCO` [Ethanol, absolute ethanol]: the “Total maximum amount of WMS expressed as % w/w” value (“Total maximum amount … as % w/w” for short) in data set [1] amounted to 25.00 % w/w.
Take `C=C(C)[C@H]1CC=C(C)CC1` [Free limonene, (4R)-1-methyl-4-(1-methylethenyl)-cyclohexene]: in data set [2] (one day), the “The % of lost limonene one day post packing (w/w), Mean” value is listed as 89.56 % (w/w). For the same molecule, in data set [2] (one month), the “The % of lost limonene one month post packing (w/w), Mean” value is reported as 93.23 % (w/w).
In the case of `OCC(O)CO` [Glycerol, glycerol], the “Total maximum amount … as % w/w” value in data set [1] was 34.78 % w/w.
Turning to `CC(O)CO` (centres unmarked) [Propylene glycols (PG), propylene glycols], in data set [1], the “Total maximum amount … as % w/w” value was 36.61 % w/w.
